In US20080063628A1, “METHODS TO PROMOTE CELL DIFFERENTIATION” (priority 2006, published 2008):

Tested on: late passage (P14) pancreatic-derived stromal cells
Assay: Trichostatin A 24 h time course, gene expression by Real-Time PCR (Example 3)
Format: cell-based, human
Settings: 2.5 μM
Description: Human pancreatic-derived stromal cells were obtained according to the methods described in Example 13. Cells were seeded into a 24-well tissue culture plate at a density of 5000/cm^2 and cultured in DMEM containing 10% fetal bovine serum under standard cell culture conditions until confluent. After the cells reached confluency, 2.5 μM trichostatin A, diluted in DMSO and medium was added to the wells. Parallel cultures were treated with an equivalent concentration of DMSO as a vehicle control. RNA samples were obtained from treated cultures at 30 minutes, 1.5 hours, 3 hours, 6 hours, 12 hours and 24 hours following the addition of trichostatin A or DMSO. Culture medium was removed, the cells were washed with PBS, and RLT lysis buffer with β-mercaptoethanol (Qiagen) was added. RNA was purified using the RNeasy Mini Kit (Qiagen). RNA quantity and quality were determined using a spectrophotometer, and CDNA was made using the iScript cDNA synthesis kit (BioRad).
The expression levels of Sox17, HNF-3 beta, Pdx-1, insulin, and glucagon were determined by Real-Time PCR. Samples of 20 ng cDNA were used in each reaction, which was performed on the Applied Biosystems 7500 according to the methods described in Example 15. Data were analyzed using the accompanying software. Human pancreas cDNA was included as a positive control, and results were normalized against GAPDH expression levels.
Real-time PCR amplifcation and quantitative analysis. Unless otherwise stated, all reagents were purchased from Applied Biosystems. Real-time PCR reactions were performed using the ABI PRISM™ 7500 Sequence Detection System. TAQMAN™ FAST UNIVERSAL PCR MASTER MIX™ (ABI, CA) was used with 20 ng of reverse transcribed RNA in a total reaction volume of 20 μl. Each cDNA sample was run in duplicate to allow correction of pipetting errors. Primers and FAM-labeled TAQMAN™ probes were used at concentrations of 200 nM. The level of expression for each target gene was normalized using the pre-developed Applied Biosystem's human glyceraldehyde-3-phosphate dehydrogenase (GAPDH) endogenous control kit. Primers and probes were designed using either ABI PRISM PRIMER EXPRESS™ software or a pre-developed ABI gene analysis kit. For each gene, either one of the primers or the probe were designed to be exon-boundary spanning. This eliminated the possibility of the primers/probe binding to any genomic DNA present. The primer and probe sets are listed as follows: Pdx-1 (Hs00426216), Insulin (Hs00355773), glucagon (Hs00174967), and FoxA2 (HNF 3-beta) (Hs00232764). The remaining primers were designed using the PRIMERS program (ABI, CA). After an initial 95° C. incubation for 20 sec, samples were cycled 40 times in two stages: a denaturation step at 95° C. for 3 sec, followed by an annealing/extension step at 60° C. for 30 sec.
For each primer/probe set, a cycle time value was determined as the cycle number at which the fluorescence intensity of the PCR reaction reached a specific value in the middle of the exponential region of amplification. An increase in expression of a gene corresponded to a decrease in the number of cycles required for the fluorescence intensity to reach this value.

`CC(/C=C/C(=O)NO)=C\[C@@H](C)C(=O)c1ccc(N(C)C)cc1` [trichostatin A] was tested, and the HNF-3 beta gene expression (0.5 h) was “nd (not detectable at >40 cycles by RT-PCR)”, the Insulin gene expression (0.5 h) was “nd (not detectable at >40 cycles by RT-PCR)” and the PDX-1 gene expression (0.5 h) was “nd (not detectable at >40 cycles by RT-PCR)”. For the same compound, the Sox17 gene expression (0.5 h) was “+ (detectable between 35 and 40 cycles by RT-PCR)”, the glucagon gene expression (0.5 h) was “nd (not detectable at >40 cycles by RT-PCR)” and the HNF-3 beta gene expression (1.5 h) was “nd (not detectable at >40 cycles by RT-PCR)”. For the same compound, the Insulin gene expression (1.5 h) was “nd (not detectable at >40 cycles by RT-PCR)”, the PDX-1 gene expression (1.5 h) was “nd (not detectable at >40 cycles by RT-PCR)” and the Sox17 gene expression (1.5 h) was “nd (not detectable at >40 cycles by RT-PCR)”. For the same compound, the glucagon gene expression (1.5 h) was “nd (not detectable at >40 cycles by RT-PCR)”, the HNF-3 beta gene expression (3 h) was “nd (not detectable at >40 cycles by RT-PCR)” and the Insulin gene expression (3 h) was “nd (not detectable at >40 cycles by RT-PCR)”. The PDX-1 gene expression (3 h) was “nd (not detectable at >40 cycles by RT-PCR)”, the Sox17 gene expression (3 h) was “+ (detectable between 35 and 40 cycles by RT-PCR)” and the glucagon gene expression (3 h) was “nd (not detectable at >40 cycles by RT-PCR)”. The “Sox-17 RT-PCR detection cycle” value (3 hours) was greater than 35 cycles, the HNF-3 beta gene expression (6 h) was “+ (detectable between 35 and 40 cycles by RT-PCR)” and the Insulin gene expression (6 h) was “nd (not detectable at >40 cycles by RT-PCR)”. For the same compound, the PDX-1 gene expression (6 h) was “nd (not detectable at >40 cycles by RT-PCR)”, the Sox17 gene expression (6 h) was “+ (detectable between 35 and 40 cycles by RT-PCR)” and the glucagon gene expression (6 h) was “nd (not detectable at >40 cycles by RT-PCR)”. For the same compound, the “HNF-3 beta RT-PCR detection cycle” value (6 hours) was greater than 35 cycles, the HNF-3 beta gene expression (12 h) was “+ (detectable between 35 and 40 cycles by RT-PCR)” and the Insulin gene expression (12 h) was “nd (not detectable at >40 cycles by RT-PCR)”. For the same compound, the PDX-1 gene expression (12 h) was “+ (detectable between 35 and 40 cycles by RT-PCR)”, the Sox17 gene expression (12 h) was “+ (detectable between 35 and 40 cycles by RT-PCR)” and the glucagon gene expression (12 h) was “nd (not detectable at >40 cycles by RT-PCR)”. For the same compound, the “Pdx-1 RT-PCR detection cycle” value (12 hours) was greater than 35 cycles, the HNF-3 beta gene expression (24 h) was “+++ (detectable at less than 35 cycles by RT-PCR with std error less than 0.9)” and the Insulin gene expression (24 h) was “nd (not detectable at >40 cycles by RT-PCR)”. The PDX-1 gene expression (24 h) was “+++ (detectable at less than 35 cycles by RT-PCR with std error less than 0.9)”, the Sox17 gene expression (24 h) was “+++ (detectable at less than 35 cycles by RT-PCR with std error less than 0.9)” and the glucagon gene expression (24 h) was “+ (detectable between 35 and 40 cycles by RT-PCR)”. For the same compound, the “HNF-3 beta RT-PCR detection cycle” value (24 hours) was less than 35 cycles, the “HNF-3 beta gene expression relative to human pancreas” value (24 hours) was ~0.075 % of human pancreas and the “Pdx-1 RT-PCR detection cycle” value (24 hours) was less than 35 cycles. For the same compound, the “Pdx-1 gene expression relative to human pancreas” value (24 hours) was ~0.2 % of human pancreas levels, the “Sox-17 RT-PCR detection cycle” value (24 hours) was less than 35 cycles and the “Sox-17 gene expression relative to human pancreas” value (24 hours) was ~3 % of human pancreas levels. For the same compound, the “glucagon RT-PCR detection cycle” value (24 hours) was 35-40 cycles.
